Molecular target: human APJ receptor (Homo sapiens (Human), UniProt P35414)
Experiment: [35S]GTPγS binding assay on membranes from CHO cells stably expressing human APJ receptor
Assay type: biochemical
Settings: read-out: Activity hAPJ SPA EC50 IP
How it was run: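 Membranes from CHO cells stably expressing human APJ incubated with ligand, 0.2 nM [35S]GTPγS and WGA SPA beads in HEPES pH 7.5 with 5 mM MgCl2, 200 mM NaCl, 3 μM GDP, 90 min at RT. Nonspecific binding defined with 100 μM GTPγS; EC50 by non-linear regression.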

human APJ receptor, sequence (P35414 whole entry): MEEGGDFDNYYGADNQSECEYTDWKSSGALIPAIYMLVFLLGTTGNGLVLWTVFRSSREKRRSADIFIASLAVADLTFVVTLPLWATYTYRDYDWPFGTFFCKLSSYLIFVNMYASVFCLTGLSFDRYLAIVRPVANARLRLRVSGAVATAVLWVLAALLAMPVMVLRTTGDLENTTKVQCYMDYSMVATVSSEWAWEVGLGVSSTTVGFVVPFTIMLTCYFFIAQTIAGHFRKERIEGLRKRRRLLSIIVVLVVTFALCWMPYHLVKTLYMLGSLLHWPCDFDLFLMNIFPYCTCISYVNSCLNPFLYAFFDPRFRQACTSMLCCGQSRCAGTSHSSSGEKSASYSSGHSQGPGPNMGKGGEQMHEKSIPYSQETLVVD

| Molecule | EC50 [nM] |
| --- | --- |
| (1R,2S)-1-(5-chloropyrimidin-2-yl)-N-(5-((R)-2,3-dihydrobenzo[b][1,4]dioxin-2-yl)-4-(2,6-dimethoxyphenyl)-4H-1,2,4-triazol-3-yl)-1-methoxypropane-2-sulfonamide or (1R,2S)-1-(5-chloropyrimidin-2-yl)-N-(5-((S)-2,3-dihydrobenzo[b][1,4]dioxin-2-yl)-4-(2,6-dimethoxyphenyl)-4H-1,2,4-triazol-3-yl)-1-methoxypropane-2-sulfonamide [Example 259.0] | 88 |
| COc1cccc(OC)c1-n1c(NS(=O)(=O)[C@@H](C)[C@H](C)c2ncc(Cl)cn2)nnc1[C@@H]1CCO[C@@H]1C (single isomer, unassigned) [Example 119.0, (2S,3R)-3-(5-chloropyrimidin-2-yl)-N-(4-(2,6-dimethoxyphenyl)-5-((2R,3S)-2-methyltetrahydrofuran-3-yl)-4H-1,2,4-triazol-3-yl)butane-2-sulfonamide or (2S,3R)-3-(5-chloropyrimidin-2-yl)-N-(4-(2,6-dimethoxyphenyl)-5-((2S,3R)-2-methyltetrahydrofuran-3-yl)-4H-1,2,4-triazol-3-yl)butane-2-sulfonamide] | 160 |
| (1S,2S)-N-(4-(1,3-dimethoxy-2-propanyl)-5-((2R,5R)-5-methyltetrahydro-2-furanyl)-4H-1,2,4-triazol-3-yl)-1-(5-methyl-2-pyrazinyl)-1-(2-propanyloxy)-2-propanesulfonamide or (1S,2S)-N-(4-(1,3-dimethoxy-2-propanyl)-5-((2S,5S)-5-methyltetrahydro-2-furanyl)-4H-1,2,4-triazol-3-yl)-1-(5-methyl-2-pyrazinyl)-1-(2-propanyloxy)-2-propanesulfonamide [Example 365.0] | 72 |
| (1S,2S)-N-(4-(2,6-dimethoxyphenyl)-5-((S)-5,5-dimethyltetrahydrofuran-2-yl)-4H-1,2,4-triazol-3-yl)-1-isopropoxy-1-(5-methylpyrimidin-2-yl)propane-2-sulfonamide or (1S,2S)-N-(4-(2,6-dimethoxyphenyl)-5-((R)-5,5-dimethyltetrahydrofuran-2-yl)-4H-1,2,4-triazol-3-yl)-1-isopropxy-1-(5-methylpyrimidin-2-yl)propane-2-sulfonamide [Example 210.0] | 0.62 |
| COc1cccc(OC)c1-n1c(NS(=O)(=O)[C@@H](C)[C@H](C)c2ncc(C)cn2)nnc1[C@H]1CCO[C@@H]1C (single isomer, unassigned) [Example 122.0, (2S,3R)-N-(4-(2,6-dimethoxyphenyl)-5-((2S,3S)-2-methyltetrahydrofuran-3-yl)-4H-1,2,4-triazol-3-yl)-3-(5-methylpyrimidin-2-yl)butane-2-sulfonamide or (2S,3R)-N-(4-(2,6-dimethoxyphenyl)-5-((2R,3R)-2-methyltetrahydrofuran-3-yl)-4H-1,2,4-triazol-3-yl)-3-(5-methylpyrimidin-2-yl)butane-2-sulfonamide] | 930 |
| COc1cccc(OC)c1-n1c(NS(=O)(=O)[C@@H](C)[C@H](C)c2cnc(C)cn2)nnc1[C@H]1CCCCO1 (single isomer, unassigned) [Example 106.0, (2S,3R)-N-(4-(2,6-dimethoxyphenyl)-5-((S)-tetrahydro-2H-pyran-2-yl)-4H-1,2,4-triazol-3-yl)-3-(5-methylpyrazin-2-yl)butane-2-sulfonamide or (2S,3R)-N-(4-(2,6-dimethoxyphenyl)-5-((R)-tetrahydro-2H-pyran-2-yl)-4H-1,2,4-triazol-3-yl)-3-(5-methylpyrazin-2-yl)butane-2-sulfonamide] | 53 |
| (1S,2S)-1-(5-chloropyrimidin-2-yl)-1-isopropoxy-N-(4-(1-(methoxymethyl)cyclopropyl)-5-((R)-tetrahydrofuran-3-yl)-4H-1,2,4-triazol-3-yl)propane-2-sulfonamide or (1S,2S)-1-(5-chloropyrimidin-2-yl)-1-isopropoxy-N-(4-(1-(methoxymethyl)cyclopropyl)-5-((S)-tetrahydrofuran-3-yl)-4H-1,2,4-triazol-3-yl)propane-2-sulfonamide [Example 319.0] | 130 |
| CO[C@H](c1ncc(Cl)cn1)[C@H](C)S(=O)(=O)Nc1nnc([C@H]2CCOC2)n1C1(C)CC1 (single isomer, unassigned) [Example 124.0, (1R,2S)-1-(5-chloropyrimidin-2-yl)-1-methoxy-N-(4-(1-methylcyclopropyl)-5-((R)-tetrahydrofuran-3-yl)-4H-1,2,4-triazol-3-yl)propane-2-sulfonamide or (1R,2S)-1-(5-chloropyrimidin-2-yl)-1-methoxy-N-(4-(1-methylcyclopropyl)-5-((S)-tetrahydrofuran-3-yl)-4H-1,2,4-triazol-3-yl)propane-2-sulfonamide] | 440 |
| COc1ncnc(OC)c1-n1c(NS(=O)(=O)[C@@H](C)[C@H](OC)c2ncc(Cl)cn2)nnc1C1CCCOC1 (single isomer, unassigned) [Example 91.0, (1R,2S)-1-(5-chloropyrimidin-2-yl)-N-(4-(4,6-dimethoxypyrimidin-5-yl)-5-((S)-tetrahydro-2H-pyran-3-yl)-4H-1,2,4-triazol-3-yl)-1-methoxypropane-2-sulfonamide or (1R,2S)-1-(5-chloropyrimidin-2-yl)-N-(4-(4,6-dimethoxypyrimidin-5-yl)-5-((R)-tetrahydro-2H-pyran-3-yl)-4H-1,2,4-triazol-3-yl)-1-methoxypropane-2-sulfonamide] | 290 |
| COc1cccc(OC)c1-n1c(NS(=O)(=O)[C@@H](C)[C@H](C)c2ncc(C)cn2)nnc1[C@H]1CCO[C@@H]1C (single isomer, unassigned) [Example 120.0, (2S,3R)-N-(4-(2,6-dimethoxyphenyl)-5-((2S,3S)-2-methyltetrahydrofuran-3-yl)-4H-1,2,4-triazol-3-yl)-3-(5-methylpyrimidin-2-yl)butane-2-sulfonamide or (2S,3R)-N-(4-(2,6-dimethoxyphenyl)-5-((2R,3R)-2-methyltetrahydrofuran-3-yl)-4H-1,2,4-triazol-3-yl)-3-(5-methylpyrimidin-2-yl)butane-2-sulfonamide] | 270 |
| (1R,2S)-N-(4-(2,6-dimethoxyphenyl)-5-((R)-1,4-dioxan-2-yl)-4H-1,2,4-triazol-3-yl)-1-ethoxy-1-(5-methylpyrimidin-2-yl)propane-2-sulfonamide or (1R,2S)-N-(4-(2,6-dimethoxyphenyl)-5-((S)-1,4-dioxan-2-yl)-4H-1,2,4-triazol-3-yl)-1-ethoxy-1-(5-methypyrimidin-2-yl)propane-2-sulfonamide [Example 204.0] | 100 |
| COCC(COC)n1c(NS(=O)(=O)[C@@H](C)[C@H](OC)c2ncc(Cl)cn2)nnc1[C@@H]1COCCO1 (single isomer, unassigned) [Example 251.0, (1R,2S)-1-(5-chloro-2-pyrimidinyl)-N-(4-(1,3-dimethoxy-2-propanyl)-5-((2R)-1,4-dioxan-2-yl)-4H-1,2,4-triazol-3-yl)-1-methoxy-2-propanesulfonamide or (1R,2S)-1-(5-chloro-2-pyrimidinyl)-N-(4-(1,3-dimethoxy-2-propanyl)-5-((2S)-1,4-dioxan-2-yl)-4H-1,2,4-triazol-3-yl)-1-methoxy-2-propanesulfonamide] | 750 |
| (1R,2S)-1-(5-chloropyrimidin-2-yl)-N-(4-(2,6-dimethoxyphenyl)-5-((R)-1,1-dioxidotetrahydrothiophen-3-yl)-4H-1,2,4-triazol-3-yl)-1-methoxypropane-2-sulfonamide or (1R,2S)-1-(5-chloropyrimidin-2-yl)-N-(4-(2,6-dimethoxyphenyl)-5-((S)-1,1-dioxidotetrahydrothiophen-3-yl)-4H-1,2,4-triazol-3-yl)-1-methoxypropane-2-sulfonamide [Example 188.0] | 220 |
| (1S,2S)-N-(4-(4,6-dimethoxypyrimidin-5-yl)-5-((R)-5,5-dimethyltetrahydrofuran-3-yl)-4H-1,2,4-triazol-3-yl)-1-isopropoxy-1-(5-methylpyrimidin-2-yl)propane-2-sulfonamide or (1S,2S)-N-(4-(4,6-dimethoxypyrimidin-5-yl)-5-((S)-5,5-dimethyltetrahydrofuran-3-yl)-4H-1,2,4-triazol-3-yl)-1-isopropoxy-1-(5-methylpyrimidin-2-yl)propane-2-sulfonamide [Example 314.0] | 71 |
| COc1ncnc(OC)c1-n1c(NS(=O)(=O)[C@@H](C)[C@@H](OC(C)C)c2ncc(C)cn2)nnc1[C@H]1CCCO1 (single isomer, unassigned) [Example 96.0, (1S,2S)-N-(4-(4,6-dimethoxypyrimidm-5-yl)-5-((S)-tetrahydrofuran-2-yl)-4H-1,2,4-triazol-3-yl)-1-isopropoxy-1-(5-methylpyrimidin-2-yl)propane-2-sulfonamide or (1S,2S)-N-(4-(4,6-dimethoxypyrimidin-5-yl)-5-((R)-tetrahydrofuran-2-yl)-4H-1,2,4-triazol-3-yl)-1-isopropoxy-1-(5-methylpyrimidin-2-yl)propane-2-sulfonamide] | 190 |
| COCC(COC)n1c(NS(=O)(=O)[C@@H](C)[C@@H](OC(C)C)c2ncc(Cl)cn2)nnc1[C@@H]1COCCO1 (single isomer, unassigned) [Example 357.0, (1S,2S)-1-(5-chloro-2-pyrimidinyl)-N-(4-(1,3-dimethoxy-2-propanyl)-5-((2R)-1,4-dioxan-2-yl)-4H-1,2,4-triazol-3-yl)-1-(2-propanyloxy)-2-propanesulfonamide or (1S,2S)-1-(5-chloro-2-pyrimidinyl)-N-(4-(1,3-dimethoxy-2-propanyl)-5-((2S)-1,4-dioxan-2-yl)-4H-1,2,4-triazol-3-yl)-1-(2-propanyloxy)-2-propanesulfonamide] | 280 |

From patent publication US10150760B2, “Compounds for use in preparing heterocyclic triazole agonists of the APJ receptor” (AMGEN INC., priority 2016, dated 2018)
